Where two headings read alike, the source gives them in different places.
Key:
GLP-1R = GLP-1R (Homo sapiens, UniProt P43220); assay: GLP-1R activation: cAMP increase in CHO cells stably expressing GLP-1R; type: cell-based
[1] = Microsomal stability, human liver microsomes (predicted hepatic clearance); settings: predicted from in vitro microsomal stability data
[2] = cAMP increase, CHO cells stably expressing GLP-1R, 10 point dose response, 30 minutes incubation, read-out: EC50

GLP-1R, sequence (P43220 24-463): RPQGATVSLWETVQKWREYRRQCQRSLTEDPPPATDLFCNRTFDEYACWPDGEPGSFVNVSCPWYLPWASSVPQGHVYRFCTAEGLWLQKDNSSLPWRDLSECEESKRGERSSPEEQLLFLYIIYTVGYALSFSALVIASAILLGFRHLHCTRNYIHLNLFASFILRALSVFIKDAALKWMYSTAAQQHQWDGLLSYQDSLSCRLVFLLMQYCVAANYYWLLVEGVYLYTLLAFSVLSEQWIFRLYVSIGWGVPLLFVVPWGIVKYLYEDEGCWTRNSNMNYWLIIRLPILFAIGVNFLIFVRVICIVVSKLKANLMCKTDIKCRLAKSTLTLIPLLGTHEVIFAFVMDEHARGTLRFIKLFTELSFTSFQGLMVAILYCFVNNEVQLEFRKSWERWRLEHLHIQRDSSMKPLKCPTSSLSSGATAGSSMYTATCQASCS

SMILES	EC50 (GLP-1R; [2]) [nM]	Predicted Hepatic Clearance (Pred. Cl.) [1] [mL/min/kg]	EC50 (GLP-1R; EC50 (nM)) [nM]
COCCC1(Cn2c(Cc3ccc(-c4cccc(OCc5ccc(C#N)cc5F)n4)cc3F)nc3ccc(C(=O)O)cc32)CC1 [Example 291, 2-(4-(6-((4-cyano-2-fluorobenzyl)oxy)pyridin-2-yl)-2-fluorobenzyl)-1-((1-(2-methoxyethyl)cyclopropyl)methyl)-1H-benzo[d]imidazole-6-carboxylic acid]	1.06	<1.83	
N#Cc1ccc(COc2cccc(-c3ccc(Cc4nc5ccc(C(=O)O)cc5n4CC4(c5cccnc5)CC4)c(F)c3)n2)c(F)c1 [Example 292, 2-(4-(6-((4-cyano-2-fluorobenzyl)oxy)pyridin-2-yl)-2-fluorobenzyl)-1-((1-(pyridin-3-yl)cyclopropyl)methyl)-1H-benzo[d]imidazole-6-carboxylic acid]	49.4	9.5	
CC(C)(CF)Cn1c(Cc2ccc(-c3cccc(OCc4ccc(C#N)cc4F)n3)c(F)c2)nc2ccc(C(=O)O)cc21 [Example 294, 2-(4-(6-((4-cyano-2-fluorobenzyl)oxy)pyridin-2-yl)-3-fluorobenzyl)-1-(3-fluoro-2,2-dimethylpropyl)-1H-benzo[d]imidazole-6-carboxylic acid]		8.3	0.75
CC(C)(Cn1c(Cc2ccc(-c3cccc(OCc4ccc(C#N)cc4F)n3)c(F)c2)nc2ccc(C(=O)O)cc21)C(F)F [Example 295, 2-(4-(6-((4-cyano-2-fluorobenzyl)oxy)pyridin-2-yl)-3-fluorobenzyl)-1-(3,3-difluoro-2,2-dimethylpropyl)-1H-benzo[d]imidazole-6-carboxylic acid]	2.12	8.3	
N#CCC1(Cn2c(Cc3ccc(-c4cccc(OCc5ccc(C#N)cc5F)n4)cc3F)nc3c(F)cc(C(=O)O)cc32)CC1 [Example 296, 2-(4-(6-((4-cyano-2-fluorobenzyl)oxy)pyridin-2-yl)-2-fluorobenzyl)-1-((1-(cyanomethyl)cyclopropyl)methyl)-4-fluoro-1H-benzo[d]imidazole-6-carboxylic acid]	0.08	5.33	
N#Cc1ccc(COc2cccc(-c3ccc(Cc4nc5c(F)cc(C(=O)O)cc5n4CC4(C(F)F)CC4)c(F)c3)n2)c(F)c1 [Example 297, 2-(4-(6-((4-cyano-2-fluorobenzyl)oxy)pyridin-2-yl)-2-fluorobenzyl)-1-((1-(difluoromethyl)cyclopropyl)methyl)-4-fluoro-1H-benzo[d]imidazole-6-carboxylic acid]	1.71	2.5	
COCCn1c(Cc2cc(F)c(-c3cccc(OCc4ccc(C#N)cc4F)n3)cc2F)nc2c(F)cc(C(=O)O)cc21 [Example 301, 2-(4-(6-((4-cyano-2-fluorobenzyl)oxy)pyridin-2-yl)-2,5-difluorobenzyl)-4-fluoro-1-(2-methoxyethyl)-1H-benzo[d]imidazole-6-carboxylic acid]		5.05	0.73
N#Cc1ccc(COc2nccc(-c3ccc(Cc4nc5ccc(C(=O)O)nc5n4CC4(CF)CC4)cc3F)n2)c(F)c1 [Example 302, 2-(4-(2-((4-cyano-2-fluorobenzyl)oxy)pyrimidin-4-yl)-3-fluorobenzyl)-3-((1-(fluoromethyl)cyclopropyl)methyl)-3H-imidazo[4,5-b]pyridine-5-carboxylic acid]	1.21	2.67	
N#CCCn1c(Cc2cc(F)c(-c3cccc(OCc4ccc(C#N)cc4F)n3)cc2F)nc2ccc(C(=O)O)cc21 [Example 305, 2-(4-(6-((4-cyano-2-fluorobenzyl)oxy)pyridin-2-yl)-2,5-difluorobenzyl)-1-(2-cyanoethyl)-1H-benzo[d]imidazole-6-carboxylic acid]	1.25	4.67	

Further compounds by falling EC50 (GLP-1R; [2]), results first:

EC50 (GLP-1R; [2]) [nM]	Predicted Hepatic Clearance (Pred. Cl.) [1] [mL/min/kg]	SMILES	EC50 (GLP-1R; EC50 (nM)) [nM]
62.3	8.42	CN(C)CC1(Cn2c(Cc3ccc(-c4cccc(OCc5ccc(C#N)cc5F)n4)cc3F)nc3ccc(C(=O)O)cc32)CC1 [Example 290, 2-(4-(6-((4-cyano-2-fluorobenzyl)oxy)pyridin-2-yl)-2-fluorobenzyl)-1-((1-((dimethylamino)methyl)cyclopropyl)methyl)-1H-benzo[d]imidazole-6-carboxylic acid]	
7.96	5.33	N#Cc1ccc(COc2cccc(-c3cc(F)c(Cc4nc5ccc(C(=O)O)cc5n4CC4COC4)cc3F)n2)c(F)c1 [Example 307, 2-(4-(6-((4-cyano-2-fluorobenzyl)oxy)pyridin-2-yl)-2,5-difluorobenzyl)-1-(oxetan-3-ylmethyl)-1H-benzo[d]imidazole-6-carboxylic acid]	
4.75	<1.83	N#Cc1ccc(COc2nccc(-c3cc(F)c(Cc4nc5ccc(C(=O)O)nc5n4CC4(CF)CC4)c(F)c3)n2)c(F)c1 [Example 298, 2-(4-(2-((4-cyano-2-fluorobenzyl)oxy)pyrimidin-4-yl)-2,6-difluorobenzyl)-3-((1-(fluoromethyl)cyclopropyl)methyl)-3H-imidazo[4,5-b]pyridine-5-carboxylic acid]	
3.13	<1.83	N#Cc1ccc(COc2cccc(-c3ccc(Cc4nc5ccc(C(=O)O)cc5n4CC4(C5CC5)CC4)c(F)c3)n2)c(F)c1 [Example 293, 1-([1,1′-bi(cyclopropan)]-1-ylmethyl)-2-(4-(6-((4-cyano-2-fluorobenzyl)oxy)pyridin-2-yl)-2-fluorobenzyl)-1H-benzo[d]imidazole-6-carboxylic acid]	
1.33	4	N#CCC1(Cn2c(Cc3ccc(-c4ccnc(OCc5ccc(C#N)cc5F)n4)c(F)c3)nc3c(F)cc(C(=O)O)cc32)CC1 [Example 303, 2-(4-(2-((4-cyano-2-fluorobenzyl)oxy)pyrimidin-4-yl)-3-fluorobenzyl)-1-((1-(cyanomethyl)cyclopropyl)methyl)-4-fluoro-1H-benzo[d]imidazole-6-carboxylic acid]	
0.68	<1.83	N#CCC1(Cn2c(Cc3ccc(-c4ccnc(OCc5ccc(C#N)cc5F)n4)c(F)c3)nc3ccc(C(=O)O)nc32)CC1 [Example 300, 2-(4-(2-((4-cyano-2-fluorobenzyl)oxy)pyrimidin-4-yl)-3-fluorobenzyl)-3-((1-(cyanomethyl)cyclopropyl)methyl)-3H-imidazo[4,5-b]pyridine-5-carboxylic acid]	
0.5	5.33	COCCn1c(Cc2cc(F)c(-c3cccc(OCc4ccc(C#N)cc4F)n3)cc2Cl)nc2ccc(C(=O)O)cc21 [Example 304, 2-(2-chloro-4-(6-((4-cyano-2-fluorobenzyl)oxy)pyridin-2-yl)-5-fluorobenzyl)-1-(2-methoxyethyl)-1H-benzo[d]imidazole-6-carboxylic acid]	
0.4	5.17	N#Cc1ccc(COc2nccc(-c3ccc(Cc4nc5c(F)cc(C(=O)O)cc5n4CC4(CF)CC4)cc3F)n2)c(F)c1 [Example 299, 2-(4-(2-((4-cyano-2-fluorobenzyl)oxy)pyrimidin-4-yl)-3-fluorobenzyl)-4-fluoro-1-((1-(fluoromethyl)cyclopropyl)methyl)-1H-benzo[d]imidazole-6-carboxylic acid]	

Reference: patent US11702404B2, “GLP-1R modulating compounds” (priority 2019, dated 2023)
